In assay [1] the test system is BCL2 (BCL2Mid) (DNA, G4) GGGCGCGGGAGGAATTGGGCGGG
Nature of the assay: fluorescence titration, competitive binding model. To be noted: K+ 100 mM, 10 mM lithium cacodylate, pH 7.3, 32% and 96% ee samples, helicene 6 μM, per site.

The subject of assay [2] is c-Myc (DNA, G4) TGAGGGTGGGTAGGGTGGGTAA
Nature of the assay: fluorescence titration, competitive binding model. The conditions noted are these: K+ 100 mM, 10 mM lithium cacodylate, pH 7.3, 32% and 96% ee samples, helicene 6 μM, per site.

In assay [3] the test system is HTG4 (DNA, G4) AGGGTTAGGGTTAGGGTTAGGG
The experiment in a line: fluorescence titration, competitive binding model. The conditions noted are these: K+ 100 mM, 10 mM lithium cacodylate, pH 7.3, 32% and 96% ee samples, helicene 6 μM, per site.

Assay [4] concerns c-Myc (DNA, G4) TGAGGGTGGGTAGGGTGGGTAA
Nature of the assay: thiazole orange displacement (TO-FID). The conditions noted are these: K+ 100 mM; 10 mM Tris-HCl, pH 7.3; thiazole orange 2 μM displaced; DNA 1 μM; helicene 0-20 μM.

The test system is the same in assay [5]. The experiment in a line: fluorescence titration, simple binding model. To be noted: K+ 100 mM, 10 mM lithium cacodylate, pH 7.3, stoichiometry fixed, equivalent stereoisomers, per site.

`OCCN1c2ccc3ccccc3c2-c2c3c1cccc3[n+](CCO)c1ccc3ccccc3c21`: the equilibrium dissociation constant (Kd) in assay [1] (KM from simultaneous fit of 0%) worked out at 5.1 µM; in assay [1] (KP from simultaneous fit of 0%) it was 7.5 µM; in assay [2] (KM from simultaneous fit of 0%), 3.8 µM; in assay [2] (KP from simultaneous fit of 0%), 4.7 µM; in assay [3] (KM from simultaneous fit of 0%), 6.2 µM; in assay [3] (KP from simultaneous fit of 0%), 7.5 µM. Further, the Kd in assay [5] was found to be 4.7 µM. This compound also came in with a DC50 in assay [4] of 4.4 µM.

In turn, `c1ccc2c3c(ccc2c1)N(CCN1CCOCC1)c1cccc2c1c-3c1c3ccccc3ccc1[n+]2CCN1CCOCC1` gave a DC50 in assay [4] of 6.0 µM. The equilibrium dissociation constant (Kd) in assay [5] is 3.8 µM.

On to `CCCN1c2ccc3ccccc3c2-c2c3c1cccc3[n+](CCC)c1ccc3ccccc3c21`, for which the DC50 in assay [4] was 3.8 µM. For the same compound, in assay [5] (helicene 4 μM constant), the Kd was 0.7 µM.

The values are drawn from PMC8580066 (2021).
